# Experimental data taken from ChEMBL document CHEMBL1201862, “PubChem BioAssay data set” (2004).
# Calls of active or inactive are those of the source.
# What was measured:
# [1] = system: HEK293; assay: inhibition of NOD1-driven NF-kB reporter – cell-based, luminescence, uHTS, primary screen (AID 1578); format: functional; conditions: Homo sapiens
# [2] = system: BJ; assay: growth inhibition of engineered Ras-driven BJ cells – cell-based, alamar blue fluorescence, cherrypicked samples, dose response (AID 2631); format: functional; conditions: Homo sapiens;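 note: confirmatory dose-response assay in RAS-dependent BJ fibroblasts engineered with TERT, LT and ST, with cytotoxicity read by fluorescence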
# [3] = system: HEK293; assay: cells; format: functional, cell-based; conditions: Homo sapiens
# [4] = system: BJ; assay: cells; format: functional, cell-based; conditions: Homo sapiens
# [5] = biological target: Luciferin 4-monooxygenase (Photinus pyralis, UniProt P08659); assay: Counter Screen for Luciferase-based Assay Positives. [Related pubchem assays: 620, 618, 411 ]
# Luciferin 4-monooxygenase, sequence (P08659 whole entry): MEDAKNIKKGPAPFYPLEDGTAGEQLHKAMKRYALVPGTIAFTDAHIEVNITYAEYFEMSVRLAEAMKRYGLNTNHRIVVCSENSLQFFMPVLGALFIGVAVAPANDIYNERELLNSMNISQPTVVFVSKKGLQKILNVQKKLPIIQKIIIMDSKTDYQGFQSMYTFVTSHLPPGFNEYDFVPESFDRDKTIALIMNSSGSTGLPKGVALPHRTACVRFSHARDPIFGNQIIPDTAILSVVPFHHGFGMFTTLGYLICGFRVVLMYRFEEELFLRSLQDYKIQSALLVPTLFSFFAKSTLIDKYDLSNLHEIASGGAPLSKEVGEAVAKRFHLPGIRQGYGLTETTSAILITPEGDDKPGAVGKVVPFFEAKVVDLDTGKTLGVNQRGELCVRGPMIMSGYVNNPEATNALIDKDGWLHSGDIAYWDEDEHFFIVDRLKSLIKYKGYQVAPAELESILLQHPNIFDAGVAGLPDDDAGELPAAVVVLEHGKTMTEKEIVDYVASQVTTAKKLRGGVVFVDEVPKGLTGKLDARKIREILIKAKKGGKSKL
# [6] = biological target: T1, Replicative DNA helicase DnaB (Mycobacterium tuberculosis, UniProt P9WMR3); assay: DnaB intein splicing inhibitors, dose response, biochemical, cell-free fluorescence (AID 449749); format: functional
# T1 sequence (P9WMR3 whole entry): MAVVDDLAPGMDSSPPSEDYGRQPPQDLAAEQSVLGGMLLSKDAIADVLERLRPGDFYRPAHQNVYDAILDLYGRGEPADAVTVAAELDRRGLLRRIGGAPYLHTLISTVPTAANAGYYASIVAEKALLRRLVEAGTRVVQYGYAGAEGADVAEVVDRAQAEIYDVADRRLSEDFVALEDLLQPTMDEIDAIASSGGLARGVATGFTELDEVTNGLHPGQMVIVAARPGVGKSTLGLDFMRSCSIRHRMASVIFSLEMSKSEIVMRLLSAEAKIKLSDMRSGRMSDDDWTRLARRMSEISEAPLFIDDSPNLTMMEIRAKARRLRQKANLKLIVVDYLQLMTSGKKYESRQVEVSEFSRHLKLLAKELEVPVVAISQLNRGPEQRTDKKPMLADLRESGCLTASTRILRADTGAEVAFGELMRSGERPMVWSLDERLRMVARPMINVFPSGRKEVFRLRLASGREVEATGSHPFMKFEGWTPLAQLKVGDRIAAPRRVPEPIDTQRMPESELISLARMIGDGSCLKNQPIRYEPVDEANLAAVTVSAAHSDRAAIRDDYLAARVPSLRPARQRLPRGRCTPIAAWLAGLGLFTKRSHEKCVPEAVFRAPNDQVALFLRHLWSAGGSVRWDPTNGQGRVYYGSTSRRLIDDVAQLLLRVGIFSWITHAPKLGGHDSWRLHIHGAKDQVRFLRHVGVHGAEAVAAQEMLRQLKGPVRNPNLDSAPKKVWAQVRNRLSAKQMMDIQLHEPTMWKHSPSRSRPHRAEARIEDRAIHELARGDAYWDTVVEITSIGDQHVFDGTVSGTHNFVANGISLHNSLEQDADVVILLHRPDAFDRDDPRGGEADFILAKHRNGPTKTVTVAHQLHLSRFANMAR
# [7] = biological target: T2, Protein RecA (Mycobacterium tuberculosis, UniProt P9WHJ3); assay: Fluorescence Cell-Free Homogeneous Dose Retest to Identify Inhibitors of RecA-Intein Splicing Activity. [Related pubchem assays (depositor defined):AID2097, AID2223, AID489010, AID492950]; format: functional
# T2 sequence (P9WHJ3 whole entry): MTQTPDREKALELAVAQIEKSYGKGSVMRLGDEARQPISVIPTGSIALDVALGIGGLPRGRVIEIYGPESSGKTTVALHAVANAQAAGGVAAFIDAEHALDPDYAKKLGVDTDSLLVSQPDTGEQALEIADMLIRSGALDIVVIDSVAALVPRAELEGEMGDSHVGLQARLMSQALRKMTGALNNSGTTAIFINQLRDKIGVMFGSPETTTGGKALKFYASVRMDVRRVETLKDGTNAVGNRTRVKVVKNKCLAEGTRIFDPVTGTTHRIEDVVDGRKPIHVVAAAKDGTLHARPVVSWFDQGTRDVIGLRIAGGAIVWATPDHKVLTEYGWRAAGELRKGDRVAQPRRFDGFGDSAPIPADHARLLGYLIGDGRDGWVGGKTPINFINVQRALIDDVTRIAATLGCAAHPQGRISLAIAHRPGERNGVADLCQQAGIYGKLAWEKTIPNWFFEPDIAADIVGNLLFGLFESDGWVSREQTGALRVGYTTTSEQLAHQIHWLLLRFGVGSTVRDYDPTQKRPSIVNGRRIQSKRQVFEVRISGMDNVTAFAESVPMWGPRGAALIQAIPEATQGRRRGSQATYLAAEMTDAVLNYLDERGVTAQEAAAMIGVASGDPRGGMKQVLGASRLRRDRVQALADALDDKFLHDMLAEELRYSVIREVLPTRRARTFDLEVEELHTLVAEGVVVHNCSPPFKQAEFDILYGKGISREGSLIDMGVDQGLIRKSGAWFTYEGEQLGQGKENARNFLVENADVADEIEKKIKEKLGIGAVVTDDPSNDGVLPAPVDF
# [8] = system: HT-1080; assay: HT1080 cell viability loss – fluorescence readout (AID 620); format: functional, cell-based; conditions: Homo sapiens
# [9] = biological target: T3, E3 ubiquitin-protein ligase XIAP (Homo sapiens, UniProt P98170); assay: Counter Screen using XIAP-Bir3 for Chemical Antagonists of Bir1/2 domains of IAP-family anti-apoptotic proteins. [Related pubchem assays (depositor defined):AID1018, AID1449, AID1514, AID1638, AID1749, AID1750, AID488957, AID488963]
# T3 sequence (P98170 whole entry): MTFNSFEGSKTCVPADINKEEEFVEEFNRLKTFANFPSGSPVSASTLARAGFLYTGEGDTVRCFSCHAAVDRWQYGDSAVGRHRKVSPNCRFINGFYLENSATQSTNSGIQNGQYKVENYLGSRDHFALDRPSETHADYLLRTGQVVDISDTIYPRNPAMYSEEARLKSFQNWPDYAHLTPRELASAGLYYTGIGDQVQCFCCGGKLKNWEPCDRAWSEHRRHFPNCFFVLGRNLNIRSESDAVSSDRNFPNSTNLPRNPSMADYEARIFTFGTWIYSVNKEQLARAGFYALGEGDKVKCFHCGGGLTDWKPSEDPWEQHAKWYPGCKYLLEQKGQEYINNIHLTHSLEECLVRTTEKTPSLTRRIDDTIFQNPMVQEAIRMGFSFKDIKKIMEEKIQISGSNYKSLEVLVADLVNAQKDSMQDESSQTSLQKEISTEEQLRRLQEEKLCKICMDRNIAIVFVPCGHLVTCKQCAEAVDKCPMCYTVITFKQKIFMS
# [10] = system: BJ; assay: BJ-TERT fibroblast viability loss – cell-based, RAS-independent, luminescence, dose response (AID 1933); format: functional; conditions: Homo sapiens
# [11] = system: HEK293; assay: NOD2 signaling inhibitors in MDP-stimulated cells, cell-based, uHTS, luminescence (AID 2001); format: functional; conditions: Homo sapiens
# [12] = biological target: T3, E3 ubiquitin-protein ligase XIAP; assay: small molecules displacing peptide from XIAP – biochemical, IAP family, fluorescence polarization (AID 1018); format: functional
# [13] = system: BJ; assay: BJ-TERT-LT-ST fibroblast viability loss – cell-based, RAS-independent, luminescence, dose response (AID 1935); format: functional; conditions: Homo sapiens;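 note: BJ fibroblasts immortalized with TERT plus LT and ST oncogenes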
# [14] = system: HEK293; assay: cells; format: functional, cell-based; conditions: Homo sapiens; remark: listed apart in the source
# [15] = reduced cellular PGC1a acetyl-lysine signal – cell-based, cherry-picked samples, dose response (AID 720514); format: functional;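 note: potency may reflect raised or lowered acetylation signal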
# [16] = microbe, parasite or virus in culture; format: functional; conditions: Mycobacterium tuberculosis
# [17] = DRD fibroblast viability loss – cell-based, non-viral oncogenic, luminescence, dose response (AID 1934); format: functional; conditions: Homo sapiens
# [18] = A2780 cell killing – plate reader, dry powder samples, cytotoxicity control, dose response (AID 743046); format: functional, cell-based
# [19] = biological target: Paired box protein Pax-8 (Homo sapiens, UniProt Q06710); assay: PAX8 transcriptional activity inhibition in RMG-I – RMG-I cells, luciferase, cherry-pick, dose response (AID 687027); format: functional, cell-based;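 note: luciferase reporter driven by Pax8 target thyroperoxidase promoter measured by SteadyGlo luminescence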
# Paired box protein Pax-8, sequence (Q06710 whole entry): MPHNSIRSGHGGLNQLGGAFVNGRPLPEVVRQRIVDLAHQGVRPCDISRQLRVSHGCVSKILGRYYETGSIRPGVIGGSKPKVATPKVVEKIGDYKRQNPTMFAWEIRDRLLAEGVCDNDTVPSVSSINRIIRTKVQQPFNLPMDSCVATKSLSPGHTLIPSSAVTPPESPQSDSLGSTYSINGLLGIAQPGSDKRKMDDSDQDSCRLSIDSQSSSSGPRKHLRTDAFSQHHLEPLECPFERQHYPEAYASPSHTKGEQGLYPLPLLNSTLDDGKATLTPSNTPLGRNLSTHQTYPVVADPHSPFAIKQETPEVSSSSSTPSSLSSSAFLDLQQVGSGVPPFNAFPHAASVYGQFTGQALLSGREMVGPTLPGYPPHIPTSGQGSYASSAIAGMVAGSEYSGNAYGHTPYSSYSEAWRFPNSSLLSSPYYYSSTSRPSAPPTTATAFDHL
# [20] = OVCAR-3 cell viability loss – plate reader, dry powder samples, PAX8 inhibitor project, dose response (AID 743044); format: functional, cell-based
# [21] = P. falciparum Dd2 growth inhibitors, dose response, SYBR Green, cherry-picked samples (AID 1159567); format: functional, cell-based
# [22] = OVCAR8 cell viability loss – plate reader, dry powder samples, PAX8 project, dose response (AID 743197); format: functional, cell-based; conditions: OVCAR-8
# [23] = Late stage assay provider results from the probe development effort to identify inhibitors of the Plasmodium falciparum M18 Aspartyl Aminopeptidase (M18AAP): radiolabel-based cell-based dose response assay to identify compounds that inhibit P. falciparum growth in RBCs, Set 2..; format: functional
# [24] = blockers of HIV-1 ZM109 envelope-driven cell-cell fusion – HeLa effector, CEM target cells, luciferase, cherry-pick, dose response (AID 652058); format: functional, cell-based;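 note: luciferase signal from HIV-1 Env mediated cell-cell fusion of effector and target cells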
# [25] = HIV-1 AD8 envelope cell-cell fusion blockers – cherry-pick, dose response (AID 652062); format: functional, cell-based;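 note: luciferase signal from cell-cell fusion driven by HIV-1 clade B AD8 Env; potency is for inhibitors of fusion seen as a drop in luminescence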
# [26] = blockers of HIV-1 envelope-mediated cell-cell fusion – cherry-pick, dose response (AID 652057); format: functional, cell-based
# [27] = toxicity to human hepatoma HepG2 cells – cell-based, cherry-picked samples, cytotoxicity control, dose response (AID 1159577); format: functional
# [28] = cytotoxicity toward HT-29 cells – cell-based, CellTiter-Glo luminescence, IC50, dose response (AID 1117330); format: functional
# [29] = HCT116 cell viability decrease, GSK3B pretreatment – CellTiter-Glo, IC50, dose response (AID 1117339); format: functional; conditions: HCT-116
# [30] = glucagon-like peptide-1 release potency in STC-1, concentration-response, half-maximal inhibitory concentration in the STC-1 line (AID 1117345); format: functional, cell-based
# [31] = cytotoxicity toward HCT116 cells – cell-based, CellTiter-Glo luminescence, IC50, dose response (AID 1117332); format: functional; conditions: HCT-116
# [32] = Potency on glucagon-like peptide 1 release, dose-response in NCI-H716 cell line, half maximal inhibitory concentration (AID 1117344); format: functional, cell-based
# [33] = Reduced DLD-1 viability, concentration-response, CellTiter-Glo luminescence (AID 1117352); format: functional
# [34] = RKO cell viability reduction, dose response, CellTiter-Glo luminescence (AID 1117322); format: functional
# [35] = cytotoxicity toward Colo320 cells – cell-based, CellTiter-Glo luminescence, IC50, dose response (AID 1117334); format: functional; conditions: COLO 320
# [36] = SNU-C1 cell viability reduction, dose response, CellTiter-Glo luminescence (AID 1117323); format: functional, cell-based
# [37] = CellTiter-Glo luminescence survival assay, SW480 colon tumor line, concentration-response curve, half-maximal inhibitory concentration (AID 1117338); format: functional
# [38] = blockade of melanocortin 4 receptor signaling – cell-based, plate reader, cherry pick, counter-screen for LGR2 antagonist project, dose response (AID 743444); format: functional;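 note: transfected HEK 293 cells stimulated with alpha-MSH peptide; potency of inhibitors of the alpha-MSH evoked signal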
# [39] = toxicity to human HepG2 hepatoma cells – cell-based, plate reader, dry powder samples, cytotoxicity control, dose response (AID 1159569); format: functional;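 note: inhibitor potency with signal falling toward the positive control level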
# [40] = Dd2 parasite growth inhibition in erythrocytes – SYBR Green, dry powder samples, set 9, dose response (AID 1159568); format: functional, cell-based
# [41] = Dd2 malaria parasite growth inhibition potency – SYBR Green, dry powder samples, dose response (AID 1159566); format: functional, cell-based;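 note: potency for growth inhibition with lower SYBR green DNA signal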
# [42] = viability loss in HEK293 cells – cell-based, plate reader, cherry-picked samples, cytotoxicity control, dose response (AID 743446); format: functional
# [43] = growth inhibition of PfATP4-mutant resistant parasites – NITD609-resistant line, SYBR Green, dry powder, dose response (AID 1159571); format: functional, cell-based;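 note: parasites synchronized at ring stage by sorbitol before testing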
# [44] = blockers of bursicon-stimulated LGR2 cAMP reporter – cell-based, HEK293, CRE-luciferase reporter, cherry pick, set 2, dose response (AID 743343); format: functional;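 note: transfected cells were stimulated with diluted bursicon conditioned medium after compound addition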
# [45] = toxicity toward HepG2 liver cells – cell-based, plate reader, cherry-pick, antagonist series, cytotoxicity control, dose response (AID 743416); format: functional
# [46] = growth inhibition of yeast DHODH-expressing 3D7 parasites – SYBR Green, dry powder samples, dose response (AID 1159570); format: functional, cell-based;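 note: parasite growth measured after 72 hours of compound exposure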
# [47] = A549 cell cytotoxicity, dose response, cytotoxicity control, plate reader, cherry-pick, antagonist series (AID 743412); format: functional, cell-based
smiles,measurement,setting,value
O=S(=O)(c1ccc(Cl)cc1)c1snnc1-c1ccccc1,EC50,[1],10.7 µM (active)
same,EC50,[2],0.51 µM (active)
same,IC50,[3],2.17 µM (active)
same,EC50,[4],3.53 µM (active)
same,EC50,[5],3.73 µM (active)
same,AC50,[6],23.9 µM (active)
same,EC50,[7],9.19 µM (active)
same,EC50,[8],20.7 µM (active)
same,IC50,[9],> 100 µM (inactive)
same,EC50,[10],2.39 µM (active)
same,IC50,[11],6.92 µM (inactive)
same,IC50,[12],> 100 µM (not active)
same,EC50,[13],3.25 µM (inconclusive)
same,IC50,[14],> 20 µM (inactive)
same,AC50,[15],7.86 µM (active)
same,CC50,[16],2.44 µM (active)
same,EC50,[17],4.96 µM (active)
C[C@H](CO)N1C[C@H](C)[C@@H](CN(C)S(=O)(=O)c2ccc(Cl)cc2)OCCCC[C@H](C)Oc2ccc(NS(=O)(=O)c3ccc(F)cc3)cc2C1=O,AC50,[18],29.1 µM (active)
same,AC50,[19],4.45 µM (active)
same,AC50,[20],36 µM (active)
CC(C)NC(=O)N1Cc2cc(C(=O)NCC(F)(F)F)nc(-c3cccc(-c4cc5ccccc5o4)c3)c2[C@H]1CCO,AC50,[21],5.15 µM (active)
same,AC50,[18],16.8 µM (active)
same,AC50,[22],58.2 µM (active)
same,AC50,[19],7.2 µM (active)
same,AC50,[20],38.2 µM (active)
Oc1ccc(CCNC2CCN(Cc3ccccc3)CC2)cc1O,IC50,[23],6.5 µM (active)
O=C(Nc1ccc(Cl)c(Cl)c1)N[C@@H]1CC[C@@H](CCn2cc(C3CCCCC3)nn2)O[C@@H]1CO,AC50,[24],0.538 µM (active)
same,AC50,[21],12.4 µM (active)
same,AC50,[25],57.9 µM (active)
same,AC50,[26],46.9 µM (active)
same,AC50,[27],17.8 µM (active)
c1ccc2c(c1)Sc1ccccc1N2CC1CN2CCC1CC2 (configuration not stated) [MEQUITAZINE],IC50,[28],> 20 µM (inactive)
same,IC50,[29],> 20 µM (inactive)
same,IC50,[30],> 40 µM (inactive)
same,IC50,[31],> 20 µM (inactive)
same,IC50,[32],> 40 µM (inactive)
same,IC50,[33],> 20 µM (inactive)
same,IC50,[34],8.46 µM (inactive)
same,IC50,[35],> 20 µM (inactive)
same,IC50,[36],> 20 µM (inactive)
same,IC50,[37],5.43 µM (inactive)
COc1ccccc1C#Cc1ccc([C@H]2[C@@H](C#N)N(C(=O)C3CCCCC3)[C@H]2CO)cc1,AC50,[38],7.87 µM (active)
same,AC50,[39],29.8 µM (active)
same,AC50,[21],1.19 µM (active)
same,AC50,[40],1.17 µM (active)
same,AC50,[41],0.349 µM (active)
same,AC50,[42],14.9 µM (active)
same,AC50,[43],0.443 µM (active)
same,AC50,[44],11.3 µM (active)
same,AC50,[45],30.5 µM (active)
same,AC50,[46],0.862 µM (active)
same,AC50,[47],21.3 µM (active)
